Earlier results as cited in US20250188545A1, “METHODS FOR PREDICTING RESPONSIVENESS OF LYMPHOMA TO DRUG AND METHODS FOR TREATING LYMPHOMA” (Celgene Corporation, priority 2022, published 2025).

Test system: high-risk ABC DLBCL population
Conditions: PHOENIX (ibrutinib), ROBUST (lenalidomide)

Nc1cccc2c1CN(C1CCC(=O)NC1=O)C2=O (stereo not shown) [lenalidomide]
activity combined with R-CHOP compared to R-CHOP alone: did not demonstrate greater activities
